Results as given in patent publication US7196198B2, “Benzoic acid derivatives, processes for the preparation thereof and pharmaceutical agents comprising the same as active ingredient” (Ono Pharmaceutical Co., Ltd., priority 2000, dated 2007).
Structures can show the parent of a compound that is named as a salt.

Tests used:
[1] = biological target: T1, EP4 (Mus musculus, UniProt P32240); experiment: Binding assay using cell expressing the prostanoid receptor subtypes ([3H]-PGE2 competition, CHO membrane fraction); conditions: membrane fraction of CHO cell expressing mouse EP4, Ki=IC50/(1+([C]/Kd))
T1 construct: expressed in transfected cells; host or cells: CHO cells (membrane fraction)
Method: (i) Binding Assay Using Cell Expressing The Prostanoid Receptor Subtypes
The preparation of membrane fraction was carried out according to the method of Sugimoto et al [J. Biol. Chem. 267, 6463–6466 (1992)], using CHO cell expressing prostanoid receptor subtype (mouse EP1, EP2, EP3, EP4 and human IP).
The standard assay mixture containing membrane fraction (0.5 mg/mL), [^3H]-PGE2 in a final volume of 200 μl was incubated for 1 hour at room temperature. The reaction was terminated by addition of 3 mL of ice-cold buffer. The mixture was rapidly filtered through a glass filter (GF/B) under reduced pressure. The radioactivity associated with the filter was measured by liquid scintillation counter.
Kd and Bmax values were determined from Scatchard plots [Ann. N.Y. Acad. Sci. 51, 660(1949)]. Non-specific binding was calculated as the amount bound in the presence of an excess (2.5 μM) of unlabeled PGE2. In the experiment for competition of specific [^3H]-PGE2 binding by the compounds of the present invention, [^3H]-PGE2 was added at a concentration of […] and the compound of the present invention was added at various concentrations. The following buffer was used in all reactions. • Buffer: 10 mM potassium phosphate (pH 6.0), 1 mM EDTA, 10 mM MgCl2, 0.1 M NaCl. • The dissociation constant (Ki) (μM) of each compound was calculated by the following equation. Ki=IC50/(1+([C]/Kd))

[2] = biological target: T1, EP4; experiment: EP4 antagonizing activity assay using the cell expressing the prostanoid receptor subtypes (cAMP production in CHO cells); type: cell-based; conditions: inhibition of cAMP production with 100 nM PGE2 as agonist; CHO cell expressing receptor subtype
Method: (ii) EP4 Antagonizing Activity Assay Using the Cell Expressing the Prostanoid Receptor Subtypes
The preparation of CHO cell expressing prostanoid receptor subtype was carried out according to the method of Nishigaki et al [FEBS lett., 364, 339–341(1995)]. The cells were cultured in 24-well microplates (10^5 cells/well) for two days before experiments. After washing each well with 500 μL of MEM (minimum essential medium), thereto was added 450 μL of assay medium (MEM containing 1 mmol/L IBMX, 1% BSA), and the mixture was incubated for 10 minutes at 37° C. Then PGE2 alone or a combination with a test compound (50 μL) were added, and the mixture was incubated for 10 minutes at 37° C. And reaction was terminated by addition of ice-cold TCA (10% W/V, 500 μL). This reaction mixture was freezed once (−80° C.) and thawed, and cells were harvested using a scraper. After centrifugation (13,000 r.p.m., for 3 minutes), cAMP content was measured using cAMP assay kit. That is, the supernatant (125 μL) was diluted with 500 μL of [^125I]-cAMP assay kit buffer (Amersham), and mixed with 0.5 mol/L tri-n-octylamine/chloroform solution (1 mL) was mixed. After removal of TCA from chloroform layer, cAMP content in the aqueous layer was quantified according to the method of kit manuals. […]

T1 sequence (P32240 whole entry): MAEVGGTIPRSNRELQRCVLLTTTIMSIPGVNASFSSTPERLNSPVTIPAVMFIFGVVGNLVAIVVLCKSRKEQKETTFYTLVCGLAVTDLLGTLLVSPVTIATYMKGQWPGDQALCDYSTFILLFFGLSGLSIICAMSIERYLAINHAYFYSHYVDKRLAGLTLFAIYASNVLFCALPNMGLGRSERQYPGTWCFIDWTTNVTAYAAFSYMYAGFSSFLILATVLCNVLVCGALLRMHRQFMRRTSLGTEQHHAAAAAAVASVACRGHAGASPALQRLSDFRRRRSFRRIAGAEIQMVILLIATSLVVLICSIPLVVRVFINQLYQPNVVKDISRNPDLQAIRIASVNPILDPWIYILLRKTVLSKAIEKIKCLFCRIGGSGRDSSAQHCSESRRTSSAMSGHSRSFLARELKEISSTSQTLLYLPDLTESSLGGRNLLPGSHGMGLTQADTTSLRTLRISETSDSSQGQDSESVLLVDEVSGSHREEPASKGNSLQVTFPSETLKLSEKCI

| SMILES | Ki [1] [nM] | IC50 [2] [nM] |
| --- | --- | --- |
| CC(C(=O)Nc1ccccc1Cc1ccccc1C(=O)O)c1cccc2ccccc12 (stereo not shown) [Example 2(1), 2-[2-[2-(1-naphthyl)propanoylamino]phenylmethyl]benzoic acid] | 2.7 | 10 |
| CC(C(=O)Nc1ccncc1Cc1ccccc1C(=O)O)c1cccc2ccccc12 (stereo not shown) [Example 2(15), 2-[4-[2-(1-naphthyl)propanoylamino]pyridin-3-ylmethyl]benzoic acid monohydrochloride] | 6.5 |  |
| CC(C(=O)Nc1ccccc1Cc1ccccc1C(=O)O)c1ccc(OCc2ccccc2)cc1 (stereo not shown) [Example 4(1), 2-[2-[2-(4-benzyloxyphenyl)propanoylamino]phenylmethyl]benzoic acid] | 10.5 |  |
